# Assays:
# Format in all cases: functional
# Streptococcus pneumoniae [1] = assay: Antimicrobial activity against trimethoprim-sulfamethoxazole-resistant Streptococcus pneumoniae by agar dilution method
# Streptococcus pneumoniae [2] = assay: Antimicrobial activity against macrolide-susceptible Streptococcus pneumoniae by agar dilution method
# Streptococcus pneumoniae [3] = assay: Antimicrobial activity against quinolone-susceptible Streptococcus pneumoniae by agar dilution method
# Streptococcus pneumoniae [4] = assay: Antimicrobial activity against penicillin-resistant Streptococcus pneumoniae by agar dilution method
# Streptococcus pneumoniae [5] = assay: Antimicrobial activity against quinolone-resistant Streptococcus pneumoniae by agar dilution method
# Streptococcus pneumoniae [6] = assay: Antimicrobial activity against penicillin-intermediate Streptococcus pneumoniae by agar dilution method
# [7] = system: Streptococcus sp. 'group A'; assay: Antimicrobial activity against macrolide-resistant Streptococcus sp. 'group A' by agar dilution method
# Streptococcus pneumoniae [8] = assay: Antimicrobial activity against trimethoprim-sulfamethoxazole-susceptible Streptococcus pneumoniae by agar dilution method
# [9] = system: Streptococcus sp. 'group A'; assay: Antimicrobial activity against macrolide-susceptible Streptococcus sp. 'group A' by agar dilution method
# Streptococcus pneumoniae [10] = assay: Antimicrobial activity against Streptococcus pneumoniae assessed as time required to show antibiotic effect
# Streptococcus pneumoniae [11] = assay: Antimicrobial activity against macrolide-resistant Streptococcus pneumoniae by agar dilution method
# Streptococcus pneumoniae [12] = assay: Antimicrobial activity against penicillin-susceptible Streptococcus pneumoniae by agar dilution method
# Streptococcus pneumoniae [13] = assay: Antimicrobial activity against penicillin-resistant Streptococcus pneumoniae by agar dilution method in presence of […] clavulanic acid
# Streptococcus pneumoniae [14] = assay: Antimicrobial activity against macrolide-resistant Streptococcus pneumoniae by agar dilution method in presence of […] clavulanic acid
# Streptococcus pneumoniae [15] = assay: Antimicrobial activity against quinolone-susceptible Streptococcus pneumoniae by agar dilution method in presence of […] clavulanic acid
# Streptococcus pneumoniae [16] = assay: Antimicrobial activity against trimethoprim-sulfamethoxazole-resistant Streptococcus pneumoniae by agar dilution method in presence of […] clavulanic acid
# Streptococcus pneumoniae [17] = assay: Antimicrobial activity against penicillin-intermediate Streptococcus pneumoniae by agar dilution method in presence of […] clavulanic acid
# Streptococcus pneumoniae [18] = assay: Antimicrobial activity against quinolone-resistant Streptococcus pneumoniae by agar dilution method in presence of […] clavulanic acid
# Streptococcus pneumoniae [19] = assay: Antimicrobial activity against trimethoprim-sulfamethoxazole-susceptible Streptococcus pneumoniae by agar dilution method in presence of […] clavulanic acid
# Streptococcus pneumoniae [20] = assay: Antimicrobial activity against penicillin-susceptible Streptococcus pneumoniae by agar dilution method in presence of […] clavulanic acid
# [21] = system: Streptococcus sp. 'group A'; assay: Antimicrobial activity against macrolide-susceptible Streptococcus sp. 'group A' by agar dilution method in presence of […] clavulanic acid
# Streptococcus pneumoniae [22] = assay: Antimicrobial activity against macrolide-susceptible Streptococcus pneumoniae by agar dilution method in presence of […] clavulanic acid
structure (smiles),measurement,setting,value
COc1cc(Cc2cnc(N)nc2N)c2cc(Cc3c(C(=O)N(C)C)[nH]c4ccc(Cl)cc34)oc2c1OC,MIC50,Streptococcus pneumoniae [1],0.25 µg/mL
same,MIC90,Streptococcus pneumoniae [1],0.5 µg/mL
same,MIC50,Streptococcus pneumoniae [2],0.12 µg/mL
same,MIC90,Streptococcus pneumoniae [2],0.5 µg/mL
same,MIC50,Streptococcus pneumoniae [3],0.12 µg/mL
same,MIC90,Streptococcus pneumoniae [3],0.5 µg/mL
same,MIC50,Streptococcus pneumoniae [4],0.25 µg/mL
same,MIC90,Streptococcus pneumoniae [4],1 µg/mL
same,MIC50,Streptococcus pneumoniae [5],0.25 µg/mL
same,MIC90,Streptococcus pneumoniae [5],1 µg/mL
same,MIC50,Streptococcus pneumoniae [6],0.25 µg/mL
same,MIC90,Streptococcus pneumoniae [6],0.5 µg/mL
same,MIC50,[7],0.016 µg/mL
same,MIC90,[7],0.03 µg/mL
same,MIC50,Streptococcus pneumoniae [8],0.06 µg/mL
same,MIC90,Streptococcus pneumoniae [8],0.12 µg/mL
same,MIC50,[9],0.06 µg/mL
same,MIC90,[9],0.06 µg/mL
same,Time,Streptococcus pneumoniae [10],>=1.1 hr
same,MIC50,Streptococcus pneumoniae [11],0.25 µg/mL
same,MIC90,Streptococcus pneumoniae [11],0.5 µg/mL
same,MIC50,Streptococcus pneumoniae [12],0.06 µg/mL
same,MIC90,Streptococcus pneumoniae [12],0.25 µg/mL
CC1(C)S[C@@H]2[C@H](NC(=O)[C@H](N)c3ccc(O)cc3)C(=O)N2[C@H]1C(=O)O [AMOXICILLIN],MIC50,Streptococcus pneumoniae [13],2 µg/mL
same,MIC90,Streptococcus pneumoniae [13],4 µg/mL
same,MIC50,Streptococcus pneumoniae [14],0.12 µg/mL
same,MIC90,Streptococcus pneumoniae [14],4 µg/mL
same,MIC50,Streptococcus pneumoniae [15],0.12 µg/mL
same,MIC90,Streptococcus pneumoniae [15],2 µg/mL
same,MIC50,Streptococcus pneumoniae [16],0.5 µg/mL
same,MIC90,Streptococcus pneumoniae [16],4 µg/mL
same,MIC50,Streptococcus pneumoniae [17],0.12 µg/mL
same,MIC90,Streptococcus pneumoniae [17],1 µg/mL
same,MIC50,Streptococcus pneumoniae [18],0.5 µg/mL
same,MIC90,Streptococcus pneumoniae [18],2 µg/mL
same,MIC50,Streptococcus pneumoniae [19],0.03 µg/mL
same,MIC90,Streptococcus pneumoniae [19],0.12 µg/mL
same,MIC,Streptococcus pneumoniae [20],≤ 0.016 µg/mL
same,MIC50,Streptococcus pneumoniae [20],≤ 0.016 µg/mL
same,MIC90,Streptococcus pneumoniae [20],0.03 µg/mL
same,MIC,[21],≤ 0.016 µg/mL
same,MIC50,[21],≤ 0.016 µg/mL
same,MIC90,[21],≤ 0.016 µg/mL
same,MIC50,Streptococcus pneumoniae [22],0.06 µg/mL
same,MIC90,Streptococcus pneumoniae [22],1 µg/mL
CC[C@H]1OC(=O)[C@H](C)[C@@H](O[C@H]2C[C@@](C)(OC)[C@@H](O)[C@H](C)O2)[C@H](C)[C@@H](O[C@@H]2O[C@H](C)C[C@H](N(C)C)[C@H]2O)[C@](C)(O)C[C@@H](C)CN(C)[C@H](C)[C@@H](O)[C@]1(C)O [AZITHROMYCIN],MIC50,Streptococcus pneumoniae [1],8 µg/mL
same,MIC50,Streptococcus pneumoniae [2],0.12 µg/mL
same,MIC90,Streptococcus pneumoniae [2],0.12 µg/mL
same,MIC50,Streptococcus pneumoniae [3],4 µg/mL
same,MIC90,Streptococcus pneumoniae [3],> 64 µg/mL
same,MIC50,Streptococcus pneumoniae [4],8 µg/mL
same,MIC50,Streptococcus pneumoniae [5],0.12 µg/mL
same,MIC50,Streptococcus pneumoniae [6],0.12 µg/mL
same,MIC90,Streptococcus pneumoniae [6],> 64 µg/mL
same,MIC50,[7],> 64 µg/mL
same,MIC90,[7],> 64 µg/mL
same,MIC50,Streptococcus pneumoniae [8],0.12 µg/mL
same,MIC90,Streptococcus pneumoniae [8],> 64 µg/mL
same,MIC50,[9],0.12 µg/mL
same,MIC90,[9],0.25 µg/mL
same,MIC50,Streptococcus pneumoniae [11],> 64 µg/mL
same,MIC50,Streptococcus pneumoniae [12],0.12 µg/mL
same,MIC90,Streptococcus pneumoniae [12],> 64 µg/mL
CO/N=C(\C(=O)N[C@@H]1C(=O)N2C(C(=O)O)=C(COC(N)=O)CS[C@H]12)c1ccco1 [CEFUROXIME],MIC50,Streptococcus pneumoniae [1],2 µg/mL
same,MIC90,Streptococcus pneumoniae [1],8 µg/mL
same,MIC50,Streptococcus pneumoniae [2],0.25 µg/mL
same,MIC90,Streptococcus pneumoniae [2],4 µg/mL
same,MIC50,Streptococcus pneumoniae [3],0.25 µg/mL
same,MIC90,Streptococcus pneumoniae [3],4 µg/mL
same,MIC50,Streptococcus pneumoniae [4],4 µg/mL
same,MIC90,Streptococcus pneumoniae [4],16 µg/mL
same,MIC50,Streptococcus pneumoniae [5],2 µg/mL
same,MIC90,Streptococcus pneumoniae [5],8 µg/mL
same,MIC50,Streptococcus pneumoniae [6],0.25 µg/mL
same,MIC90,Streptococcus pneumoniae [6],4 µg/mL
same,MIC,[7],0.016 µg/mL
same,MIC50,[7],0.016 µg/mL
same,MIC90,[7],0.03 µg/mL
same,MIC50,Streptococcus pneumoniae [8],0.03 µg/mL
same,MIC90,Streptococcus pneumoniae [8],0.5 µg/mL
same,MIC,[9],0.016 µg/mL
same,MIC50,[9],0.016 µg/mL
same,MIC90,[9],0.016 µg/mL
same,MIC50,Streptococcus pneumoniae [11],0.5 µg/mL
same,MIC90,Streptococcus pneumoniae [11],8 µg/mL
same,MIC50,Streptococcus pneumoniae [12],0.03 µg/mL
same,MIC90,Streptococcus pneumoniae [12],0.12 µg/mL
O=C(O)c1cn(C2CC2)c2cc(N3CCNCC3)c(F)cc2c1=O [CIPROFLOXACIN],MIC50,Streptococcus pneumoniae [1],1 µg/mL
same,MIC90,Streptococcus pneumoniae [1],4 µg/mL
same,MIC50,Streptococcus pneumoniae [3],1 µg/mL
same,MIC90,Streptococcus pneumoniae [3],2 µg/mL
same,MIC50,Streptococcus pneumoniae [5],32 µg/mL
same,MIC90,Streptococcus pneumoniae [5],> 32 µg/mL
same,MIC50,Streptococcus pneumoniae [6],1 µg/mL
same,MIC90,Streptococcus pneumoniae [6],4 µg/mL
same,MIC50,[7],0.5 µg/mL
same,MIC90,[7],2 µg/mL
same,MIC,[9],0.5 µg/mL
same,MIC50,[9],0.5 µg/mL
same,MIC90,[9],1 µg/mL
same,MIC50,Streptococcus pneumoniae [11],1 µg/mL
same,MIC90,Streptococcus pneumoniae [11],4 µg/mL
C[C@H]1COc2c(N3CCN(C)CC3)c(F)cc3c(=O)c(C(=O)O)cn1c23.C[C@H]1COc2c(N3CCN(C)CC3)c(F)cc3c(=O)c(C(=O)O)cn1c23.O [LEVOFLOXACIN],MIC50,Streptococcus pneumoniae [1],1 µg/mL
same,MIC90,Streptococcus pneumoniae [1],2 µg/mL
same,MIC50,Streptococcus pneumoniae [2],1 µg/mL
same,MIC90,Streptococcus pneumoniae [2],8 µg/mL
same,MIC50,Streptococcus pneumoniae [3],1 µg/mL
same,MIC90,Streptococcus pneumoniae [3],1 µg/mL
same,MIC50,Streptococcus pneumoniae [4],1 µg/mL
same,MIC90,Streptococcus pneumoniae [4],4 µg/mL
same,MIC50,Streptococcus pneumoniae [5],16 µg/mL
same,MIC90,Streptococcus pneumoniae [5],16 µg/mL
same,MIC50,Streptococcus pneumoniae [6],1 µg/mL
same,MIC90,Streptococcus pneumoniae [6],2 µg/mL
same,MIC50,[7],0.5 µg/mL
same,MIC90,[7],1 µg/mL
same,MIC50,Streptococcus pneumoniae [8],1 µg/mL
same,MIC90,Streptococcus pneumoniae [8],2 µg/mL
same,MIC,[9],0.5 µg/mL
same,MIC50,[9],0.5 µg/mL
same,MIC90,[9],2 µg/mL
same,MIC50,Streptococcus pneumoniae [11],1 µg/mL
same,MIC90,Streptococcus pneumoniae [11],2 µg/mL
same,MIC50,Streptococcus pneumoniae [12],1 µg/mL
same,MIC90,Streptococcus pneumoniae [12],8 µg/mL
CC1(C)S[C@@H]2[C@H](NC(=O)Cc3ccccc3)C(=O)N2[C@H]1C(=O)O [PENICILLIN G],MIC50,Streptococcus pneumoniae [1],1 µg/mL
same,MIC90,Streptococcus pneumoniae [1],4 µg/mL
same,MIC50,Streptococcus pneumoniae [2],0.12 µg/mL
same,MIC90,Streptococcus pneumoniae [2],2 µg/mL
same,MIC,Streptococcus pneumoniae [3],0.12 µg/mL
same,MIC50,Streptococcus pneumoniae [3],0.12 µg/mL
same,MIC90,Streptococcus pneumoniae [3],2 µg/mL
same,MIC,Streptococcus pneumoniae [4],2 µg/mL
same,MIC50,Streptococcus pneumoniae [4],2 µg/mL
same,MIC90,Streptococcus pneumoniae [4],4 µg/mL
same,MIC50,Streptococcus pneumoniae [5],0.5 µg/mL
same,MIC90,Streptococcus pneumoniae [5],2 µg/mL
same,MIC50,Streptococcus pneumoniae [6],0.25 µg/mL
same,MIC90,Streptococcus pneumoniae [6],1 µg/mL
same,MIC50,Streptococcus pneumoniae [8],0.03 µg/mL
same,MIC90,Streptococcus pneumoniae [8],0.25 µg/mL
same,MIC50,Streptococcus pneumoniae [11],0.25 µg/mL
same,MIC90,Streptococcus pneumoniae [11],4 µg/mL
same,MIC50,Streptococcus pneumoniae [12],0.016 µg/mL
same,MIC90,Streptococcus pneumoniae [12],0.06 µg/mL

# — ChEMBL document CHEMBL1255353, “Antistreptococcal activity of AR-709 compared to that of other agents” (2008)
